Measured values from patent publication US11389544B2, “Formation of functionalized cancer targeting nanoparticles by supramolecular co-assembly” (RAMOT AT TEL-AVIV UNIVERSITY LTD., priority 2016, dated 2022).

Test system: human pancreatic cancer cells (Panc-1)
Assay: Live cell imaging by confocal microscopy, binding/uptake to Panc-1 cells
Assay type: cell-based
Details: Panc-1, 2 h incubation, carboxyfluorescein loaded
Method: Carboxyfluorescein was encapsulated during the preparation of the nanoparticles. Following two hours of incubation with Panc-1 cancer cells, the cells were treated with concanavalin A (Con A) Alexa Fluor 647 conjugate. Live cell imaging analysis was performed by confocal microscopy (FIGS. 8 and 13). […] These findings support the proposed model for the co-assembly of the two peptides. As assumed, the co-assembly with Boc-FF which serves as a spacer, enabled the binding of PTR analog to the somatostatin receptor (FIG. 2b).
Panc-1 and HEK-293T cells were cultured (100,000 cells) on a cell culture dish with a glass bottom (35 mm, Greiner Bio-one). In the following day cells were incubated for two hours at 37° C. under various conditions: carboxyfluorescein (15 μM), Boc-FF (0.12 mM) and carboxyfluorescein (15 μM), Fmoc-FF-PEG2-PTR (0.3 mM) encapsulated with carboxyfluorescein (15 μM), PTR-3207-86 (0.3 mM), Fmoc-FF-PEG2-PTR (0.3 mM):Boc-FF (1:4) nanospheres encapsulated with carboxyfluorescein (15 μM). After incubation, cells were washed with PBS buffer and were treated with 10 μg/ml Concanavalin A (Con A) Alexa Fluor 647 Conjugate (Invitrogen, Carlsbad, Calif.) for 15 minutes and washed again with PBS. Live cell imaging was conducted using LSM 510 Meta confocal laser scanning microscope (Carl Zeiss, Jena, Germany).

Q: carboxyfluorescein was tested. Which “fluorescence observed in cells (binding/uptake)” value did it give?
A: No fluorescence was observed
